In US20240301319A1, “PERFUMING COMPOSITIONS” (FIRMNICH SA, priority 2017, published 2024):
Values joined by “and” are separate entries in the source; they are usually repeats but may differ in a detail not shown here. Equal entries are not always repeated. Structures can show the parent of a compound that is named as a salt.

What was measured:
[1] = Log P (n-octanol/water) of perfuming compounds (Tables 4 to 10)
[2] = Volatility of perfuming compounds (Tables 4 to 10), with top/middle/bottom note type; type: physicochemical
In short: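 Note type follows from air volatility (μg/l): bottom 49–0.1, middle 99–50, top 70,000–100. Compounds are listed within watery, green, fruity, citrus, sweet, gourmand and woody families.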

[3] = Odor threshold and odor value of perfuming compounds (Tables 4 to 10)
[4] = n-octanol/water, perfuming compounds having a green note
[5] = note type (Top/Middle/Bottom) by volatility, perfuming compounds having a green note
[6] = perfuming compounds having a green note
[7] = Table 8, perfuming compounds having a sweet note
[8] = Table 8, perfuming compounds having a sweet note, note type by volatility
[9] = Table 6, perfuming compounds having a fruity note
[10] = Table 6, perfuming compounds having a fruity note, note type by volatility
[11] = Table 9, perfuming compounds having a gourmand note, note type by volatility
[12] = Table 10, perfuming compounds having a woody note, note type by volatility

Structure (SMILES)	Log P (n-octanol/water) [1, 4]	Type [2, 5]	Volatility (μg/l air) [2, 6]	Odor Threshold (μg/l air) [3, 6]	Log P (n-octanol/water) [1, 9]	Volatility [2, 9]	Type [2, 10]	further results
COCCc1ccccc1 [(2-METHOXYETHYL)BENZENE]	2.33	Top	1239.07 μg/l air	6.32E−04 μg/l air				
COC(OC)C(C)c1ccccc1 (stereo not shown) [1,1-DIMETHOXY-2-PHENYLPROPANE]	2.50	Top	376.94 μg/l air	1.42E−02 μg/l air				
C=C(C)[C@@H]1CC=C(CO)CC1	2.68	Bottom	33.78 μg/l air	2.07E−02 μg/l air				
Cc1ccc(OCC=O)cc1	1.99	Middle	89.41 μg/l air	6.46E−05 μg/l air				
CC(CC=O)c1ccccc1 (racemic) [(+−)-3-PHENYLBUTANAL]	2.34	Top	227.83 μg/l air	3.89E−04 μg/l air				
SCc1ccco1 [2-FURANMETHANETHIOL]								Log P (n-octanol/water) [1, 7]: 1.70; Volatility [2, 7]: 29677.31 μg/l air; Type [2, 8]: Top; Odor Threshold [3, 7]: 1.43E−09 μg/l air; Odor Value [3, 7]: 2.08E+13
CC/C=C\CCOC(=O)C(C)CC (racemic) [(+−)-(Z)-3-HEXENYL 2-METHYLBUTANOATE]	3.84	Top	833.05 μg/l air	1.96E−02 μg/l air	3.84	833.05 μg/l air	TOP (perfuming compounds having a volatility ranging from 70,000 to 100 μg/l in air are referred to as “top notes”)	
COC(Cc1ccccc1)OC [(2,2-DIMETHOXYETHYL)BENZENE]	2.10	Top	456.97 μg/l air	4.55E−02 μg/l air				
CC(O)c1ccccc1 (stereo not shown) [1-PHENYL-1-ETHANOL]					1.42	470.00 μg/l air	TOP (perfuming compounds having a volatility ranging from 70,000 to 100 μg/l in air are referred to as “top notes”)	
CC(OC=O)C1CCCC(C)(C)C1 (stereo not shown)					4.01	1129.46 μg/l air	TOP (perfuming compounds having a volatility ranging from 70,000 to 100 μg/l in air are referred to as “top notes”)	
O=COCc1ccccc1 [BENZYL FORMATE]	1.76	Top	1339.53 μg/l air	3.23E−01 μg/l air				
Cc1ccc2c(c1)OCC(=O)CO2 [7-methyl-2H-1,5-benzodioxepin-3(4H)-one]	3.40 and 3.53							
CC(=O)CCc1ccc(O)cc1 [4-(4-HYDROXY-1-PHENYL)-2-BUTANONE]					0.93	0.36 μg/l air	Bottom	Odor Threshold [3, 9]: 2.05E−07 μg/l air; Odor Value [3, 9]: 1.75E+06
C=CC(CCCCC)OC(C)=O (racemic) [(+−)-1-PENTYL-2-PROPENYL ACETATE]					3.79	1506.95 μg/l air	TOP (perfuming compounds having a volatility ranging from 70,000 to 100 μg/l in air are referred to as “top notes”)	
c1ccc(CCCc2ccccn2)cc1 [2-(3-PHENYLPROPYL)PYRIDINE]	2.87	Bottom	3.83 μg/l air	1.29E−06 μg/l air				
CCCC(C)C(=O)OCC (racemic) [(+−)-ETHYL 2-METHYLPENTANOATE]	3.05	Top	35090.18 μg/l air	3.84E−05 μg/l air	3.05	35090.18 μg/l air	TOP (perfuming compounds having a volatility ranging from 70,000 to 100 μg/l in air are referred to as “top notes”)	

Structure (SMILES)	Log P (n-octanol/water) [1, 4]	Type [2, 5]	Volatility (μg/l air) [2, 6]	Odor Threshold (μg/l air) [3, 6]	Log P (n-octanol/water) [1, 9]	Volatility [2, 9]	Type [2, 10]	further results
CC(=O)CCc1ccccc1 [4-PHENYL-2-BUTANONE]	1.79	Top	176.55 μg/l air	2.22E−04 μg/l air	1.79	176.55 μg/l air	TOP (perfuming compounds having a volatility ranging from 70,000 to 100 μg/l in air are referred to as “top notes”)	
CC(=O)C(C)O (racemic) [(+−)-3-HYDROXY-2-BUTANONE]	−1.03	Top	33382.87 μg/l air	1.46E−02 μg/l air				Log P (n-octanol/water) [1, 7]: −1.03; Log P (n-octanol/water) ([1]; Table 9, gourmand note): −1.03; Volatility [2, 7]: 33382.87 μg/l air; Type [2, 8]: Top; Volatility ([2]; Table 9, gourmand note): 33382.87 μg/l air; Type [2, 11]: Top; Odor Threshold [3, 7]: 1.46E−02 μg/l air; Odor Value [3, 7]: 2.28E+06; Odor Threshold ([3]; Table 9, gourmand note): 1.46E−02 μg/l air
CC(C)CC(=O)OCc1ccccc1 [BENZYL 3-METHYLBUTANOATE]					3.45	63.56 μg/l air	Middle	Log P (n-octanol/water) [1, 7]: 3.45; Volatility [2, 7]: 63.56 μg/l air; Type [2, 8]: Middle; Odor Threshold [3, 9]: 7.31E−03 μg/l air; Odor Value [3, 9]: 8.70E+03; Odor Threshold [3, 7]: 7.31E−03 μg/l air; Odor Value [3, 7]: 8.70E+03
CCCC(C)COC(=O)C(C)CCC (stereo not shown) [2-METHYLPENTYL 2-METHYLPENTANOATE]	5.13	Top	450.33 μg/l air	2.41E−01 μg/l air	5.13	450.33 μg/l air	TOP (perfuming compounds having a volatility ranging from 70,000 to 100 μg/l in air are referred to as “top notes”)	
COc1ccc(C=O)cc1 [4-METHOXYBENZALDEHYDE]	1.56	Middle	98.47 μg/l air	1.81E−05 μg/l air				
C/C=C/C(=O)C1=C(C)C=CCC1(C)C					3.33			Log P (n-octanol/water) ([1]; Table 10, woody note): 3.33; Type [2, 12]: Middle; Volatility ([2]; Table 10, woody note): 91.38 μg/l air; Odor Threshold ([3]; Table 10, woody note): 3.00E−06 μg/l air
CC(=O)CCC=C(C)C [6-METHYL-5-HEPTEN-2-ONE]	2.05	Top	5775.94 μg/l air	1.06E−01 μg/l air	2.05	5775.94 μg/l air	TOP (perfuming compounds having a volatility ranging from 70,000 to 100 μg/l in air are referred to as “top notes”)	
N#C/C=C/c1ccccc1 [(E)-3-PHENYL-2-PROPENENITRILE]								Log P (n-octanol/water) ([1]; Table 10, woody note): 1.98; Type [2, 12]: Middle; Volatility ([2]; Table 10, woody note): 66.00 μg/l air; Odor Threshold ([3]; Table 10, woody note): 8.97E−05 μg/l air
C=CCOC(=O)COc1ccccc1 [ALLYL PHENOXYACETATE]	2.04	Bottom	9.94 μg/l air	1.22E−03 μg/l air	2.04	9.94 μg/l air	Bottom	Odor Threshold [3, 9]: 1.22E−03 μg/l air; Odor Value [3, 9]: 8.13E+03
CCCCC1CCC(=O)O1 (racemic) [(+−)-4-OCTANOLIDE]					1.80	108.41 μg/l air	TOP (perfuming compounds having a volatility ranging from 70,000 to 100 μg/l in air are referred to as “top notes”)	Log P (n-octanol/water) ([1]; Table 9, gourmand note): 1.80; Volatility ([2]; Table 9, gourmand note): 108.41 μg/l air; Type [2, 11]: Top; Odor Threshold [3, 9]: 2.32E−05 μg/l air; Odor Value [3, 9]: 4.67E+06; Odor Threshold ([3]; Table 9, gourmand note): 2.32E−05 μg/l air
COC(=O)OC1CC/C=C\CCC1 (racemic)	3.02	Top	278.83 μg/l air	3.69E−04 μg/l air				
CCC(C)C(=O)OCCc1ccccc1 (racemic) [(+−)-2-PHENYLETHYL 2-METHYLBUTANOATE]					3.64	37.73 μg/l air	Bottom	Odor Threshold [3, 9]: 8.56E−03 μg/l air; Odor Value [3, 9]: 4.41E+03
CCCC=C1OC(=O)c2ccccc21 [3-BUTYLIDENE-1-BENZO[C]FURANONE]								Log P (n-octanol/water) [1, 7]: 3.12; Log P (n-octanol/water) ([1]; Table 9, gourmand note): 3.12; Volatility [2, 7]: 14.37 μg/l air; Type [2, 8]: Bottom; Volatility ([2]; Table 9, gourmand note): 14.37 μg/l air; Type [2, 11]: Bottom; Odor Threshold [3, 7]: 8.65E−04 μg/l air; Odor Value [3, 7]: 1.66E+04; Odor Threshold ([3]; Table 9, gourmand note): 8.65E−04 μg/l air
CCC(C)C1(C)COC(C2CCC(C)=CC2C)OC1 (stereo not shown)								Log P (n-octanol/water) ([1]; Table 10, woody note): 6.50; Type [2, 12]: Bottom; Volatility ([2]; Table 10, woody note): 3.82 μg/l air; Odor Threshold ([3]; Table 10, woody note): 1.67E−03 μg/l air
CCCCCCCCCCO [1-DECANOL]	4.10	Bottom	31.90 μg/l air	1.13E−02 μg/l air				
C=C(C)C1CC=C(C)CC1 (single isomer, unassigned; (+)) [(+)-LIMONENE]					5.40	10216.93 μg/l air	TOP (perfuming compounds having a volatility ranging from 70,000 to 100 μg/l in air are referred to as “top notes”)	Log P (n-octanol/water) ([1]; Table 7, citrus note): 5.40; Volatility (μg/l air) ([2]; Table 7, citrus note): 10216.93 μg/l air; Type ([2]; Table 7, citrus note, top, middle or bottom note): Top; Odor Threshold (μg/l air) ([3]; Table 7, citrus note): 1.29E−01 μg/l air; Odor Value ([3]; Table 7, citrus note, equals volatility divided by odor threshold): 7.92E+04
